Columns and labels:
A549 = assay: Cytotoxicity against human A549 cells after 48 hrs by neutral red uptake assay; type: cell-based; conditions: a549, 48 h
MDCK = assay: Cytotoxicity against MDCK cells after 48 hrs by neutral red uptake assay; type: cell-based, Canis lupus familiaris; conditions: dog

Row | Compound | CC50 (A549) | CC50 (MDCK)
1 | Clc1cc(-c2cc(CNC34CC5CC(CC(C5)C3)C4)no2)c(Cl)s1 | 61.4 µM | 39.3 µM
2 | Clc1cc(-c2cc(CNC34CC5CC(CC(C5)C3)C4)no2)cs1 | 52.6 µM | 35.6 µM
3 | CSc1ccccc1-c1cc(CNC23CC4CC(CC(O)(C4)C2)C3)no1 | 102 µM | 59.3 µM
4 | OC12CC3CC(C1)CC(NCc1cc(-c4ccccc4Cl)on1)(C3)C2 | 143 µM | 64.1 µM
5 | Oc1ccccc1-c1cc(CNC23CC4CC(CC(C4)C2)C3)no1 | 78.2 µM | 73.7 µM
6 | OC12CC3CC(C1)CC(NCc1cc(-c4cc(Cl)sc4Cl)on1)(C3)C2 |  | 87.6 µM
7 | COc1sccc1-c1cc(CNC23CC4CC(CC(C4)C2)C3)no1 | 35.5 µM | 30.6 µM

— ChEMBL document CHEMBL3997811
